Experimental data taken from publication PMC5060005 (Bioorganic & medicinal chemistry, 2016).
Counter-ions that a name gives are not always drawn. Like-named read-outs stand apart in the source and are kept apart here.

Columns and labels:
5-HT2B receptor = 5-HT2B receptor (Homo sapiens, UniProt P41595); conditions: MTA = Missed 50% of threshold inhibition; Ki without SEM within 20% of mean
D2 receptor = D2 receptor (Homo sapiens, UniProt P14416); conditions: MTA = Missed 50% of threshold inhibition; Ki without SEM within 20% of mean
D2 receptor, sequence (P14416 whole entry): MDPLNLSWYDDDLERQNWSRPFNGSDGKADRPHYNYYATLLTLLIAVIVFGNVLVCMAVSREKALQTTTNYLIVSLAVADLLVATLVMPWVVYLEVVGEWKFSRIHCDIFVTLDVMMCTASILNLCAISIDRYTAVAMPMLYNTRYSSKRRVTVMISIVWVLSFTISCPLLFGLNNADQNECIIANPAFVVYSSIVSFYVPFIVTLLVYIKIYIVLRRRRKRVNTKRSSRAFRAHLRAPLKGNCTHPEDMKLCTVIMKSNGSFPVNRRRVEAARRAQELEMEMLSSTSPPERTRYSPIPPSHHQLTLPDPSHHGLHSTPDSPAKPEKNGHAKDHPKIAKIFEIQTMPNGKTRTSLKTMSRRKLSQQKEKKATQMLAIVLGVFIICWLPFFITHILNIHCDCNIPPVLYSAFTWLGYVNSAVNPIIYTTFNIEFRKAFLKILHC

5-HT2C receptor = 5-HT2C receptor (Homo sapiens, UniProt P28335); conditions: MTA = Missed 50% of threshold inhibition; Ki without SEM within 20% of mean
5-HT2C receptor, sequence (P28335 33-458): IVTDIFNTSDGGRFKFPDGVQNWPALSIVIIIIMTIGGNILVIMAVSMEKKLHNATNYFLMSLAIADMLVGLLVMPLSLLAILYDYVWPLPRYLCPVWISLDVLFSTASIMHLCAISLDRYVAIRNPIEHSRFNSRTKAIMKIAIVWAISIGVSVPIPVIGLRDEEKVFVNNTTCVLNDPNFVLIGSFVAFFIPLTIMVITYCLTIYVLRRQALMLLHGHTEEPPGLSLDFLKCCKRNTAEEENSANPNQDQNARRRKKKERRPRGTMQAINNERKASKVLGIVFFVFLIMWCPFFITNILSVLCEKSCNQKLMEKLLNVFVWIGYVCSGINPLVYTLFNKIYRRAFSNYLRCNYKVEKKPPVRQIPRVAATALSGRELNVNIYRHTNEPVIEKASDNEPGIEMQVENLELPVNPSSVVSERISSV

5-HT2A receptor = 5-HT2A receptor (Homo sapiens, UniProt P28223)
5-HT2A receptor, sequence (P28223 whole entry): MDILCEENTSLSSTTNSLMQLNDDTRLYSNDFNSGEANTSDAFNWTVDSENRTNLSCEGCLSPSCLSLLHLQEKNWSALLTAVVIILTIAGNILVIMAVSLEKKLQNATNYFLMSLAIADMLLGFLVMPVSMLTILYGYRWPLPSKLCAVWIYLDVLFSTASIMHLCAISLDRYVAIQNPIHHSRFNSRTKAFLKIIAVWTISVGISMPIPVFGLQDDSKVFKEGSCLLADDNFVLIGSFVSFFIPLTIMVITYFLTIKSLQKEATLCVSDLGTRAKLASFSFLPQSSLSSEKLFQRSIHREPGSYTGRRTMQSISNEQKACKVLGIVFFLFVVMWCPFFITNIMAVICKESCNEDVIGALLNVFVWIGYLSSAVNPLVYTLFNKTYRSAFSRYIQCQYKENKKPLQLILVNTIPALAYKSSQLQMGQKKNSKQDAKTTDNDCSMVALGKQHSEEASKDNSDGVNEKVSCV

histamine H1 receptor = histamine H1 receptor (Homo sapiens, UniProt P35367); conditions: MTA = Missed 50% of threshold inhibition; Ki without SEM within 20% of mean
histamine H1 receptor, sequence (P35367 whole entry, species assumed): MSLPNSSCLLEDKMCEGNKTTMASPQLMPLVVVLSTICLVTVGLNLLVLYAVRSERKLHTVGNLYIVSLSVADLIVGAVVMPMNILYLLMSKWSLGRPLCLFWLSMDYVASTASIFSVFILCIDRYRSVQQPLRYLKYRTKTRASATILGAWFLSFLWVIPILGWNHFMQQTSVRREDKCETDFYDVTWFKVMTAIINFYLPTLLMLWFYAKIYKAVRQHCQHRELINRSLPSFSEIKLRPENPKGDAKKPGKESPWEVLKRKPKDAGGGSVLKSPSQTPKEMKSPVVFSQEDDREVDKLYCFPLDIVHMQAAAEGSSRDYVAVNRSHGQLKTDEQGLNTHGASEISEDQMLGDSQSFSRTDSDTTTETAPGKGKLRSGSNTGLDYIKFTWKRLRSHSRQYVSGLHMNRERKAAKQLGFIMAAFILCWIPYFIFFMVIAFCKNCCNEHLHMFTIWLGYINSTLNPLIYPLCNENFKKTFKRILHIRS

SERT = SERT (Homo sapiens, UniProt P31645); conditions: MTA = Missed 50% of threshold inhibition; Ki without SEM within 20% of mean
SERT, sequence (P31645 whole entry, species assumed): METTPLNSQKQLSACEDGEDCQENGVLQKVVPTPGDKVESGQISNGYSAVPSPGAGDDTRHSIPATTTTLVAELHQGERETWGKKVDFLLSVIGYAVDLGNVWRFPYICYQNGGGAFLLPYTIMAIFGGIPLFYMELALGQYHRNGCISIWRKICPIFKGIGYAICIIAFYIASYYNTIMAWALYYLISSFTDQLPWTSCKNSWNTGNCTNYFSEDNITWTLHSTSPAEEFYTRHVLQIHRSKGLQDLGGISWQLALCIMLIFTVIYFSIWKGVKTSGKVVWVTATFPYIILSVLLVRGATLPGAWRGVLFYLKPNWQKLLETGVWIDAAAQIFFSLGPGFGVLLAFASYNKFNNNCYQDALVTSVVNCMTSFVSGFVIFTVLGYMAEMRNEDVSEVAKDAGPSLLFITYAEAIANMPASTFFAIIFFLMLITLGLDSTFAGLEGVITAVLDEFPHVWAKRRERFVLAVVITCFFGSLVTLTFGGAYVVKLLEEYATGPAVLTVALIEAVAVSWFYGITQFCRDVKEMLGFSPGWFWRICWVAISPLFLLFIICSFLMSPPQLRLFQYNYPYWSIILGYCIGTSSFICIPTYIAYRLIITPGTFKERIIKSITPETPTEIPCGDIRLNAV

5-HT7 receptor = 5-HT7 receptor (Homo sapiens, UniProt P34969)
5-HT7 receptor, sequence (P34969 whole entry): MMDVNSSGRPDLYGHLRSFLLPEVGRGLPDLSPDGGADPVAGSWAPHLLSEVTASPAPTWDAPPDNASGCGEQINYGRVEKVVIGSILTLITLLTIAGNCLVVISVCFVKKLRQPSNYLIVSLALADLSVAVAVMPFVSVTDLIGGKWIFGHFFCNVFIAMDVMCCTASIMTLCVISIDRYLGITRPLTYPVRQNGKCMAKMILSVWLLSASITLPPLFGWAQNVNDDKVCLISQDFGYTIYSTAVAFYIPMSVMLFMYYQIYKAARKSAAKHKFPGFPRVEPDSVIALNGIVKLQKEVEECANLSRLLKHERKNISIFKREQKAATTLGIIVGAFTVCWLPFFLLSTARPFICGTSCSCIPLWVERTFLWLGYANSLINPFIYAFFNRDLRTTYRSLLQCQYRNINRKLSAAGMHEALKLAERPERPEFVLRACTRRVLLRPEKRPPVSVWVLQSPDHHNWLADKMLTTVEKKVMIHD

5-HT1A receptor = 5-HT1A receptor (Homo sapiens, UniProt P08908)
5-HT1A receptor, sequence (P08908 whole entry): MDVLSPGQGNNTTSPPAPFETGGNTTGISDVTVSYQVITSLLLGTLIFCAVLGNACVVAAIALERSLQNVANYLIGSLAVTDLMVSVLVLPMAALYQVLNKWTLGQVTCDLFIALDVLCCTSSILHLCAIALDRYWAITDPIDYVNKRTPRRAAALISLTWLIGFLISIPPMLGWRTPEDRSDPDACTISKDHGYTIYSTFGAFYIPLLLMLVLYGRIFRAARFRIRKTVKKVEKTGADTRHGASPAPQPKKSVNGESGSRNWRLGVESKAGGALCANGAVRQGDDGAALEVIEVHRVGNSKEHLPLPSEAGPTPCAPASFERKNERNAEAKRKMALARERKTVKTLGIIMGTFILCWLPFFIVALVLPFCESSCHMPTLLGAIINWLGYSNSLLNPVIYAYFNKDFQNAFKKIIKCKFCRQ

D3 receptor = D3 receptor (Homo sapiens, UniProt P35462); conditions: MTA = Missed 50% of threshold inhibition; Ki without SEM within 20% of mean
D3 receptor, sequence (P35462 whole entry): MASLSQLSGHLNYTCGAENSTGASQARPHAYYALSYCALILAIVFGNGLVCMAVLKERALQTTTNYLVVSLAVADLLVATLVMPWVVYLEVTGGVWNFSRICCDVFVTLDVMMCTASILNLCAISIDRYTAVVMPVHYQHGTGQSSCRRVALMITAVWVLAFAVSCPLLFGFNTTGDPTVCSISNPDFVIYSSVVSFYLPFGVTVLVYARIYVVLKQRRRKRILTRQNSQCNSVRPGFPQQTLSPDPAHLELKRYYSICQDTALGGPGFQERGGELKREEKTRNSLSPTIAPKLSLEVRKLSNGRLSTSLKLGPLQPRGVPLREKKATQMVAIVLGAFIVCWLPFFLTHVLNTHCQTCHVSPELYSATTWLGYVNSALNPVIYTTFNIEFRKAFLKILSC

[1] = MTA = Missed 50% of threshold inhibition, Ki without SEM within 20% of mean

5-HT2B receptor, sequence (P41595 whole entry): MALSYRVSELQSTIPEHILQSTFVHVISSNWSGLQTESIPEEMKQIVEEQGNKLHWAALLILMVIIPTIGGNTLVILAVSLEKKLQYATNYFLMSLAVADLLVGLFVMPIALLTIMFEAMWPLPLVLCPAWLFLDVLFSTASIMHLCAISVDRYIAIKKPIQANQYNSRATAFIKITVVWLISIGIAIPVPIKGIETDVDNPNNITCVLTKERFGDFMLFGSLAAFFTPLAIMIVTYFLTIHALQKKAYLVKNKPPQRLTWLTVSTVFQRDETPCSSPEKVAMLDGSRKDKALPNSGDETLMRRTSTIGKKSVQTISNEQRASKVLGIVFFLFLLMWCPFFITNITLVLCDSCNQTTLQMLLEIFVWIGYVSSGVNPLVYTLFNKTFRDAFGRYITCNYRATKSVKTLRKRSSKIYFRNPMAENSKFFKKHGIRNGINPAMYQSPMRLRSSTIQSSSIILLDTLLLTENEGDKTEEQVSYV

**Q.** What does the source list for `O=C1c2ccccc2C(=O)N1CCCCN1CCc2ccccc2C1` [Compound 1, 2-(4-(3,4-Dihydroisoquinolin-2(1H)-yl)butyl)isoindoline-1,3-dione]?
**A.** Ki 5-HT2B (5-HT2B receptor): MTA; Ki D2 (D2 receptor): MTA; Ki 5-HT2C (5-HT2C receptor): MTA; Ki 5-HT2A (5-HT2A receptor): MTA; Ki H1 (histamine H1 receptor): MTA; Ki SERT (SERT): MTA

**Q.** For `O=C1c2ccccc2C(=O)N1CCCCN1CCC2CCCCC2C1` (centres unmarked) [Compound 2, 2-(4-(Octahydroisoquinolin-2(1H)-yl)butyl)isoindoline-1,3-dione], which “decrease in binding affinity to the 5-HT7R” value (5-HT7 receptor; relative to compound 1) is on record?
**A.** ~40 fold

**Q.** Which results are given for `O=C1c2ccccc2C(=O)N1CCCCN1Cc2ccccc2C1` [Compound 3, 2-(4-(Isoindolin-2-yl)butyl)isoindoline-1,3-dione]?
**A.** Ki 5-HT2B (5-HT2B receptor): MTA; Ki 5-HT1A (5-HT1A receptor; [1]): MTA; Ki D2 (D2 receptor): MTA; Ki 5-HT2A (5-HT2A receptor; [1]): MTA; Ki H1 (histamine H1 receptor): MTA; Ki D3 (D3 receptor): MTA; Ki SERT (SERT): MTA; Ki 5-HT7 (5-HT7 receptor; [1]): MTA

**Q.** What does the source list for `c1ccc2c(c1)CCN(CCCCc1c[nH]c3ccccc13)C2` [Compound 4, 2-(4-(1H-indol-3-yl)butyl)-1,2,3,4-tetrahydroisoquinoline]?
**A.** Ki 5-HT2B (5-HT2B receptor): MTA; Ki 5-HT2C (5-HT2C receptor): MTA

**Q.** How did the “Ki 5-HT2C” value (5-HT2C receptor) turn out when `Cl.Fc1ccc2c(c1)CC(CCN1CCc3ccccc3C1)C2` (centres unmarked) [Compound 5, 2-(2-(5-Fluoro-2,3-dihydro-1H-inden-2-yl)ethyl)-1,2,3,4-tetrahydroisoquinoline hydrochloride] was run?
**A.** MTA

**Q.** For `Cl.Fc1ccc(OCCCN2CCc3ccccc3C2)cc1` [Compound 7, 2-(3-(4-Fluorophenoxy)propyl)-1,2,3,4-tetrahydroisoquinoline hydrochloride], which “Ki 5-HT2C” value (5-HT2C receptor) is on record?
**A.** MTA

**Q.** What about the “Ki SERT” value (SERT) of the same compound?
**A.** MTA

**Q.** With `Cl.Fc1ccc(SCCCN2CCc3ccccc3C2)cc1` [Compound 8, 2-(3-((4-Fluorophenyl)thio)propyl)-1,2,3,4-tetrahydroisoquinoline hydrochloride] as the compound, how does the “Ki SERT” value (SERT) read?
**A.** MTA

**Q.** Which “Ki 5-HT2C” value (5-HT2C receptor) does the source give for `Cl.[O-][S+](CCCN1CCc2ccccc2C1)c1ccc(F)cc1` (centres unmarked) [Compound 9, 2-(3-((4-Fluorophenyl)sulfinyl)propyl)-1,2,3,4-tetrahydroisoquinoline hydrochloride] here?
**A.** MTA

**Q.** What about the “Ki SERT” value (SERT) of the same compound?
**A.** MTA

**Q.** Which results are given for `O=C(CCCN1CCc2ccccc2C1)c1ccc(F)cc1` [Compound 10, 4-(3,4-Dihydroisoquinolin-2(1H)-yl)-1-(4-fluorophenyl)butan-1-one]?
**A.** increase in binding affinity at the 5-HT1AR (5-HT1A receptor; relative to compound 9): 3 fold; Ki SERT (SERT): MTA

**Q.** For `O=C(CCCN1CCc2ccccc2C1)c1ccc(O)cc1` [Compound 15, 4-(3,4-Dihydroisoquinolin-2(1H)-yl)-1-(4-hydroxyphenyl)butan-1-one hydrochloride], which “Ki 5-HT2C” value (5-HT2C receptor) is on record?
**A.** MTA
